The supplement of paper PMC10307832

Legend:
Experiment in all cases: relative viability (nuclei count vs DMSO), 5 days (fraction); higher = more cells survive
[1] = compound: CC(=O)c1c(C)c2cnc(Nc3ccc(N4CCNCC4)cn3)nc2n(C2CCCC2)c1=O [Palbociclib] + COc1cc2c(Oc3ccc(NC(=O)C4(C(=O)Nc5ccc(F)cc5)CC4)cc3F)ccnc2cc1OCCCN1CCOCC1 [Foretinib] (partner 0.25 µM)
Procedure, shortened: (§1)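 Lung cancer cell lines were seeded in 1536-well plates and dosed by pin tool the next day, with either a single drug or a fixed anchor-drug dose combined with five library-drug doses (not always all listed) spaced in √10 steps. Five days later, one step fixed the cells and stained their nuclei (final 0.05% Triton X-100, 1% formaldehyde, 1 ug/ml Hoechst), and nuclei were counted on 4× images. Relative viability is the nuclei count in treated wells divided by the count in vehicle wells, and each value is the median of duplicate plates.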

[2] = compound: CC(=O)c1c(C)c2cnc(Nc3ccc(N4CCNCC4)cn3)nc2n(C2CCCC2)c1=O [Palbociclib] + Cc1nc(NC(=O)N2CCC[C@H]2C(N)=O)sc1-c1ccnc(C(C)(C)C(F)(F)F)c1 [Alpelisib] (partner 2 µM)
Procedure, shortened: as §1

[3] = compound: CC(=O)c1c(C)c2cnc(Nc3ccc(N4CCNCC4)cn3)nc2n(C2CCCC2)c1=O [Palbociclib] + N=C(N)NC(=N)NCCc1ccccc1 [Phenformin] (partner 250 µM)
Procedure, shortened: as §1

[4] = compound: CC(=O)c1c(C)c2cnc(Nc3ccc(N4CCNCC4)cn3)nc2n(C2CCCC2)c1=O [Palbociclib] + O=C(CCCCCCC(=O)Nc1ccccc1)NO [Vorinostat] (partner 1 µM)
Procedure, shortened: as §1

Cell Line	relative viability ([1]; first compound 0.01 µM)	relative viability ([1]; first compound 0.03162 µM)	relative viability ([1]; first compound 0.1 µM)	relative viability ([1]; first compound 0.3162 µM)	relative viability ([1]; first compound 1 µM)	relative viability ([2]; first compound 0.01 µM)	relative viability ([2]; first compound 0.03162 µM)	relative viability ([2]; first compound 0.1 µM)	relative viability ([2]; first compound 0.3162 µM)	relative viability ([2]; first compound 1 µM)	relative viability ([3]; first compound 0.01 µM)	relative viability ([3]; first compound 0.03162 µM)	relative viability ([3]; first compound 0.1 µM)	relative viability ([3]; first compound 0.3162 µM)	relative viability ([3]; first compound 1 µM)	relative viability ([4]; first compound 0.01 µM)	relative viability ([4]; first compound 0.03162 µM)	relative viability ([4]; first compound 0.1 µM)	relative viability ([4]; first compound 0.3162 µM)	relative viability ([4]; first compound 1 µM)
LOU-NH91	0.957	0.86	0.678	0.646	0.533	0.753	0.609	0.545	0.576	0.55	0.832	0.563	0.503	0.504	0.472	1.02	0.623	0.695	0.675	0.673
LXF-289	0.977	0.926	0.955	0.896	0.828	0.99	0.988	1.01	0.923	0.767	0.51	0.294	0.452	0.462	0.378	0.77	0.268	0.66	0.782	0.672
NCI-H1666	0.998	0.941	0.875	0.7	0.553	0.976	0.765	0.792	0.611	0.443	0.57	0.462	0.518	0.411	0.427	1.05	0.947	0.836	0.835	0.788
NCI-H460	1.01	0.969	0.886	0.8	0.536	0.476	0.413	0.275	0.217	0.0996	0.537	0.411	0.409	0.333	0.149	0.669	0.604	0.454	0.369	0.115
SW 1573	0.867	1	0.862	0.742	0.785	0.676	0.744	0.571	0.57	0.49	0.364	0.324	0.234	0.216	0.219	0.752	0.251	0.51	0.673	0.546
NCI-H2228	0.773	0.782	0.867	0.787	0.781	0.73	0.566	0.609	0.59	0.589	0.322	0.287	0.293	0.258	0.307	0.566	0.673	0.649	0.717	0.398
